# The source made the active and inactive calls. The calls are words filed in the database; no cut-off is given here. Where a SMILES comes first, the peptide text is derived from it. Bridges are numbered along the chain shown (N, C = ends).
# Columns and labels:
# Klebsiella pneumoniae [1] = test: Antibiofilm activity against Klebsiella pneumoniae ATTC 13883 incubated for 24 hrs under shaking condition by turbidometric method; type: functional
# Staphylococcus aureus [2] = test: Antibacterial activity against Staphylococcus aureus USA300 LAC infected in CD1 mouse assessed as reduction in bacterial load at 7.5 mg/kg, sc administered at infection site measured after 3 days by colony counting method relative to control; type: functional; details: time 3 day
# Acinetobacter baumannii [3] = test: Antibiofilm activity against 24 hrs preformed Acinetobacter baumannii 5015 biofilm assessed as reduction in biofilm viability at 7.2 to 30.3 uM by TTC assay relative to control; type: functional; details: dose microM 7.2-30.3
# Staphylococcus aureus [4] = test: Antibacterial activity against Staphylococcus aureus USA300 LAC infected in CD1 mouse assessed as dermonecrosis area at 7.5 mg/kg, sc administered at infection site measured after 3 days by caliper method (Rvb > 75 mm2); type: functional; details: time 3 day
# Pseudomonas aeruginosa [5] = test: Antibacterial activity against Pseudomonas aeruginosa PA14 measured after overnight incubation by microtitre plate based spectrophotometric method; type: functional
# Staphylococcus aureus [6] = test: Antibacterial activity against Staphylococcus aureus USA300 LAC infected in CD1 mouse assessed as reduction in dermonecrosis at 7.5 mg/kg, sc administered at infection site measured after 3 days by caliper method relative to control; type: functional; set-up: scale not given: the % may be the effect or the level left; details: time 3 day
# Klebsiella pneumoniae [7] = test: Antibacterial activity against Klebsiella pneumoniae ATTC 13883 measured after overnight incubation by microtitre plate based spectrophotometric method; type: functional
# [8] = Aggregation property of the compound in sodium citrate solution at 10 mM by turbidimetric method; type: physicochemical; details: 10000 µM
# [9] = Aggregation property of the compound in sodium phosphate solution at 10 mM by turbidimetric method; type: physicochemical; details: 10000 µM
# Acinetobacter baumannii [10] = test: Antibiofilm activity against Acinetobacter baumannii 5015 incubated for 24 hrs under shaking condition by turbidometric method; type: functional
# PBMC [11] = test: Immunomodulatory activity in human PBMC assessed as increase in MCP1 production at 25 ug/ml measured after overnight incubation by ELISA; type: functional, tissue-based; details: dose 25.0 µg/ml
# Klebsiella pneumoniae [12] = test: Antibiofilm activity against 24 hrs preformed Klebsiella pneumoniae ATTC 13883 biofilm assessed as reduction in biofilm viability at 7.2 to 30.3 uM by TTC assay relative to control; type: functional; details: dose microM 7.2-30.3
# Staphylococcus aureus [13] = test: Antibiofilm activity against methicillin-resistant Staphylococcus aureus USA300 LAC incubated for 24 hrs under shaking condition by turbidometric method; type: functional
# Staphylococcus aureus [14] = test: Antibacterial activity against methicillin-resistant Staphylococcus aureus USA300 LAC measured after overnight incubation by microtitre plate based spectrophotometric method; type: functional
# Escherichia coli [15] = test: Antibacterial activity against Escherichia coli ATTC 489 measured after overnight incubation by microtitre plate based spectrophotometric method; type: functional
# Staphylococcus aureus [16] = test: Antibiofilm activity against methicillin-resistant Staphylococcus aureus SAP0017 assessed as reduction in biofilm biomass incubated overnight by crystal violet staining assay; type: functional
# [17] = Aggregation property of the compound in saline at 1 mg/ml by turbidimetric method; type: physicochemical; details: buffer
# Escherichia coli [18] = test: Antibiofilm activity against 24 hrs preformed Escherichia coli ATTC 489 biofilm assessed as reduction in biofilm viability at 7.2 to 30.3 uM by TTC assay relative to control; type: functional; details: dose microM 7.2-30.3
# [19] = Aggregation property of the compound in RPMI medium with 1% FBS at 1 mg/ml by turbidimetric method; type: physicochemical
# [20] = Aggregation property of the compound in sodium nitrate solution at 10 mM by turbidimetric method; type: physicochemical; details: 10000 µM
# Pseudomonas aeruginosa [21] = test: Antibiofilm activity against Pseudomonas aeruginosa PA14 incubated for 24 hrs under shaking condition by turbidometric method; type: functional
# [22] = Immunomodulatory activity in human PBMC assessed as increase in LPS-induced IL10 production at 25 ug/ml measured after overnight incubation by ELISA; type: functional; details: dose 25 µg/ml
# PBMC [23] = test: Immunomodulatory activity in human PBMC assessed as change in TNFalpha production at 25 ug/ml measured after overnight incubation by ELISA; type: functional, tissue-based; details: dose 25.0 µg/ml
# Pseudomonas aeruginosa [24] = test: Antibiofilm activity against 24 hrs preformed Pseudomonas aeruginosa PAO1 biofilm assessed as reduction in biofilm viability at 7.2 to 30.3 uM by TTC assay relative to control; type: functional; details: dose microM 7.2-30.3
# Staphylococcus aureus [25] = test: Antibiofilm activity against methicillin-resistant Staphylococcus aureus USA300 LAC assessed as reduction in biofilm biomass measured after overnight incubation by crystal violet staining assay; type: functional
# Pseudomonas aeruginosa [26] = test: Antibiofilm activity against Pseudomonas aeruginosa PAO1 incubated for 24 hrs under shaking condition by turbidometric method; type: functional
# Acinetobacter baumannii [27] = test: Antibacterial activity against Acinetobacter baumannii 5015 measured after overnight incubation by microtitre plate based spectrophotometric method; type: functional
# Acinetobacter baumannii [28] = test: Antibacterial activity against Acinetobacter baumannii 17918 measured after overnight incubation by microtitre plate based spectrophotometric method; type: functional
# [29] = Aggregation property of the compound in water at 1 mg/ml by turbidimetric method; type: physicochemical; details: buffer
# PBMC [30] = test: Immunomodulatory activity in human PBMC assessed as increase in IL-1RA production at 25 ug/ml measured after overnight incubation by ELISA; type: functional, tissue-based; details: dose 25.0 µg/ml
# [31] = Immunomodulatory activity in human PBMC assessed as increase in LPS-induced IL1RA production at 25 ug/ml measured after overnight incubation by ELISA; type: functional; details: dose 25 µg/ml
# Pseudomonas aeruginosa [32] = test: Antibiofilm activity against 24 hrs preformed Pseudomonas aeruginosa PA14 biofilm assessed as reduction in biofilm viability at 7.2 to 30.3 uM by TTC assay relative to control; type: functional; details: dose microM 7.2-30.3
# Staphylococcus aureus [33] = test: Antibacterial activity against methicillin-resistant Staphylococcus aureus SAP0017 measured after overnight incubation by microtitre plate based spectrophotometric method; type: functional
# [34] = Aggregation property of the compound in 5% dextrose at 1 mg/ml by turbidimetric method; type: physicochemical
# Trypsin [35] = target: T1, Trypsin (Homo sapiens, UniProt P07477+P07478+P35030); test: Stability of the compound in pH 8.2 ammonium bicarbonate buffer assessed as trypsin (unknown origin)-mediated drug degradation at 20 ug/ml measured after 120 mins by RP-HPLC analysis; type: ADME, protein assay
# [36] = Aggregation of the compound in human PBMC assessed as amorphous morphology at 50 ug/ml measured after 4 hrs by microscopic analysis; type: ADME, tissue-based; details: dose 50 µg/ml
# PBMC [37] = test: Immunomodulatory activity in human PBMC assessed as reduction in LPS-induced TNFalpha production at 25 ug/ml measured after overnight incubation by ELISA; type: functional, tissue-based; details: dose 25.0 µg/ml
# [38] = Toxicity in CD1 mouse assessed as redness under the skin at 10 mg/kg, sc measured after 16 hrs; type: organism-based; details: in vivo
# Pseudomonas aeruginosa [39] = test: Antibacterial activity against Pseudomonas aeruginosa PAO1 measured after overnight incubation by microtitre plate based spectrophotometric method; type: functional
# Acinetobacter baumannii [40] = test: Antibiofilm activity against Acinetobacter baumannii 17918 incubated for 24 hrs under shaking condition by turbidometric method; type: functional
# Escherichia coli [41] = test: Antibiofilm activity against Escherichia coli ATTC 489 incubated for 24 hrs under shaking condition by turbidometric method; type: functional
# Staphylococcus aureus [42] = test: Antibiofilm activity against methicillin-resistant Staphylococcus aureus SAP0017 incubated for 24 hrs under shaking condition by turbidometric method; type: functional
# Acinetobacter baumannii [43] = test: Antibiofilm activity against 24 hrs preformed Acinetobacter baumannii 17918 biofilm assessed as reduction in biofilm viability at 7.2 to 30.3 uM by TTC assay relative to control; type: functional; details: dose microM 7.2-30.3
# [44] = Immunomodulatory activity in human PBMC assessed as increase in LPS-induced MCP1 production at 25 ug/ml measured after overnight incubation by ELISA; type: functional; details: dose 25 µg/ml
# [45] = Cytotoxicity against human PBMC assessed as reduction in cell viability at 100 ug/ml measured after 24 hrs by LDH assay; type: tissue-based; details: dose 100 µg/ml
# PBMC [46] = test: Immunomodulatory activity in human PBMC assessed as reduction in LPS-induced IL1beta production at 25 ug/ml measured after overnight incubation by ELISA; type: functional, tissue-based; details: dose 25.0 µg/ml
# Trypsin [47] = target: T1, Trypsin; test: Stability of the compound in pH 8.2 ammonium bicarbonate buffer assessed as trypsin (unknown origin)-mediated compound cleavage at carboxy-terminal side of arginine at 20 ug/ml measured within 30 mins by RP-HPLC analysis; type: ADME, protein assay; details: pH 8.2, 0.5 h, at 20 µg/mL
# Trypsin [48] = target: T1, Trypsin; test: Stability of the compound in pH 8.2 ammonium bicarbonate buffer assessed as trypsin (unknown origin)-ILPWK formation at 20 ug/ml measured within 30 mins by MALDI-TOF analysis; type: ADME, protein assay; details: pH 8.2, 0.5 h, dose 20 µg/ml
# Trypsin [49] = target: T1, Trypsin; test: Stability of the compound in pH 8.2 ammonium bicarbonate buffer assessed as trypsin (unknown origin)-mediated drug degradation at 20 ug/ml measured up to 120 mins by RP-HPLC analysis; type: ADME, protein assay; details: pH 8.2, 2 h, at 20 µg/mL
# [50] = Toxicity in CD1 mouse assessed as precipitation under the skin at 10 mg/kg, sc measured after 16 hrs; type: organism-based; details: in vivo
# Trypsin [51] = target: T1, Trypsin; test: Stability of the compound in pH 8.2 ammonium bicarbonate buffer assessed as trypsin (unknown origin)-mediated drug degradation at 20 ug/ml measured up to 120 mins by MALDI-TOF analysis; type: ADME, protein assay; details: pH 8.2, 2 h, at 20 µg/mL
compound,measurement,setting,value
CC[C@H](C)[C@@H]1NC(=O)[C@H](CCCNC(=N)N)NC(=O)[C@H](C(C)C)NC(=O)[C@H](C)NC(=O)[C@H](C(C)C)NC(=O)[C@H]([C@@H](C)CC)NC(=O)[C@H](CC(C)C)NC(=O)[C@H](CCCNC(=N)N)NC(=O)[C@H](C(C)C)NC(=O)CC[C@@H](C(N)=O)NC(=O)[C@H](CCCNC(=N)N)NC(=O)[C@H](CCCNC(=N)N)NC(=O)[C@H](Cc2c[nH]c3ccccc23)NC1=O (VRLIVAVRIWRRE-NH2; lactam N-13),MBEC,Klebsiella pneumoniae [1],9.7 µM
same,fold change (FC),Staphylococcus aureus [2],1000
same,Activity,Acinetobacter baumannii [3],70%
same,Activity,Staphylococcus aureus [4],5 mm2
same,MIC,Pseudomonas aeruginosa [5],30.3 µM
same,Activity,Staphylococcus aureus [6],90%
same,MIC,Klebsiella pneumoniae [7],15.1 µM
same,Activity,[8],Not Active
same,Activity,[9],Not Active
same,MBEC,Acinetobacter baumannii [10],15.1 µM
same,Activity,PBMC [11],Active
same,Activity,Klebsiella pneumoniae [12],70%
same,MBEC,Staphylococcus aureus [13],7.2 µM
same,MIC,Staphylococcus aureus [14],15.1 µM
same,MIC,Escherichia coli [15],30.3 µM
same,MBIC,Staphylococcus aureus [16],7.2 µM
same,Activity,[17],Not Active
same,Activity,Escherichia coli [18],70%
same,Activity,[19],Active
same,Activity,[20],Not Active
same,MBEC,Pseudomonas aeruginosa [21],38.8 µM
same,Activity,[22],30%
same,Activity,PBMC [23],inactive
same,Activity,Pseudomonas aeruginosa [24],70%
same,MBIC,Staphylococcus aureus [25],7.2 µM
same,MBEC,Pseudomonas aeruginosa [26],38.8 µM
same,MIC,Acinetobacter baumannii [27],15.1 µM
same,MIC,Acinetobacter baumannii [28],15.1 µM
same,Activity,[29],Not Active
same,Activity,PBMC [30],Active
same,Activity,[31],35%
same,Activity,Pseudomonas aeruginosa [32],70%
same,MIC,Staphylococcus aureus [33],15.1 µM
same,Activity,[34],Not Active
same,"metabolised at 2 h, 20 ug/ml","Trypsin [35]; trypsin in ammonium bicarbonate buffer, pH 8.2, at 20 µg/mL, read-out: Drug degradation",30%
same,Activity,[36],Not Active
same,Activity,PBMC [37],Active
same,Activity,[38],Toxic
same,MIC,Pseudomonas aeruginosa [39],30.3 µM
same,MBEC,Acinetobacter baumannii [40],15.1 µM
same,MBEC,Escherichia coli [41],38.8 µM
same,MBEC,Staphylococcus aureus [42],9.7 µM
same,Activity,Acinetobacter baumannii [43],70%
same,Activity,[44],35%
same,Activity,[45],Toxic
H-VRLIVAVRIWRR-NH2,MBEC,Klebsiella pneumoniae [1],10.4 µM
same,Activity,Acinetobacter baumannii [3],70%
same,Activity,Staphylococcus aureus [4],30 mm2
same,MIC,Pseudomonas aeruginosa [5],32.5 µM
same,MIC,Klebsiella pneumoniae [7],16.2 µM
same,Activity,[8],Active
same,Activity,PBMC [46],Active
same,Activity,[9],Active
same,MBEC,Acinetobacter baumannii [10],16.2 µM
same,Activity,PBMC [11],Active
same,Stabilty,Trypsin [47],Unstable
same,Activity,Klebsiella pneumoniae [12],70%
same,MBEC,Staphylococcus aureus [13],7.8 µM
same,Drug metabolism,Trypsin [48],Metabolite_Detected
same,MIC,Staphylococcus aureus [14],32.5 µM
same,MIC,Escherichia coli [15],65.8 µM
same,Activity,[17],Not Active
same,Activity,Escherichia coli [18],70%
same,Activity,[19],Active
same,Activity,[20],Active
same,MBEC,Pseudomonas aeruginosa [21],16.2 µM
same,Stabilty,Trypsin [49],Stable
same,Activity,PBMC [23],inactive
same,Activity,Pseudomonas aeruginosa [24],70%
same,Activity,[50],Toxic
same,MBEC,Pseudomonas aeruginosa [26],16.2 µM
same,MIC,Acinetobacter baumannii [27],32.5 µM
same,MIC,Acinetobacter baumannii [28],32.5 µM
same,Activity,[29],Not Active
same,Activity,PBMC [30],Active
same,Activity,Pseudomonas aeruginosa [32],70%
same,MIC,Staphylococcus aureus [33],32.5 µM
same,Activity,[34],Not Active
same,Stabilty,"Trypsin [35]; buffer, pH 8.2, 2 h, at 20 µg/mL",Unstable
same,Activity,[36],Active
same,Activity,PBMC [37],Active
same,MIC,Pseudomonas aeruginosa [39],32.5 µM
same,Stabilty,Trypsin [51],Stable
same,MBEC,Acinetobacter baumannii [40],16.2 µM
same,MBEC,Escherichia coli [41],10.4 µM
same,Activity,Acinetobacter baumannii [43],70%
same,Activity,[44],35%
same,Activity,[45],Toxic
